Measurements: US20120220581A1, “IMIDAZO[1,2-b]PYRIDAZINE DERIVATIVES AND THEIR USE AS PDE10 INHIBITORS” (Janssen-Cilag, S.A., priority 2009, published 2012)

Experiments:
[1] = biological target: T1, Rat recombinant PDE10A (rPDE10A2) (Rattus norvegicus, UniProt Q9QYJ6); experiment: In vitro assay PDE10A (SPA, 3H-cAMP); format: biochemical; details: pIC50 corresponds to the −log IC50 expressed in mol/L; read-out: PDE10A2 pIC50 (converted)
T1 construct: inferred from the Ni metal chelate purification; made in house; host or cells: Sf9 insect cells (baculovirus)
T1 sequence (Q9QYJ6 1-794): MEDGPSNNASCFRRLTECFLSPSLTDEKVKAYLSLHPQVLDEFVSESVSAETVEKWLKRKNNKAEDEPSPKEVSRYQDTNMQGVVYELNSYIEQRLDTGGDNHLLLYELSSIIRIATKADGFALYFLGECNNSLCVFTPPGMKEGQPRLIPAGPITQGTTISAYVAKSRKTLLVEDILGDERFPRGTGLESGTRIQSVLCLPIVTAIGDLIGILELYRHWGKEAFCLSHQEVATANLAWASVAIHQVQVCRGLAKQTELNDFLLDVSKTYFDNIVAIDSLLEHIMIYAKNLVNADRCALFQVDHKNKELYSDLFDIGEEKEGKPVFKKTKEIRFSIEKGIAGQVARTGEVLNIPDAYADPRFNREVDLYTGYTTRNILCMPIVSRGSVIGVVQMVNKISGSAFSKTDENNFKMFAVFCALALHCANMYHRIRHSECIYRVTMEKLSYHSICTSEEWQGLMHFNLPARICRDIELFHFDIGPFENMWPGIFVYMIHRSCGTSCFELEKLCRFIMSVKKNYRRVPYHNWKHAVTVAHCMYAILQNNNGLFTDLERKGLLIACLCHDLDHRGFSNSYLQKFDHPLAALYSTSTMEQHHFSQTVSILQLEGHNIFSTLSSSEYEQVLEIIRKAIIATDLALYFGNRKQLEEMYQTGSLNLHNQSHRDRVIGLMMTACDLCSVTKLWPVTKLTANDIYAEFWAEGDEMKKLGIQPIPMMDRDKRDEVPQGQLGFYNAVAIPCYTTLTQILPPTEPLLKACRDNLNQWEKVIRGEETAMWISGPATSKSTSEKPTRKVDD
Protocol: Rat recombinant PDE10A (rPDE10A2) was expressed in Sf9 cells using a recombinant rPDE10A baculovirus construct. Cells were harvested after 48 h of infection and the rPDE10A protein was purified by metal chelate chromatography on Ni-sepharose 6FF. Tested compounds were dissolved and diluted in 100% DMSO to a concentration 100 fold of the final concentration in the assay. Compound dilutions (0.4 μl) were added in 384 well plates to 20 μl of incubation buffer (50 mM Tris pH 7.8, 8.3 mM MgCl2, 1.7 mM EGTA). 10 μl of rPDE10A enzyme in incubation buffer was added and the reaction was started by addition of 10 μl substrate to a final concentration of 60 nM cAMP and 0.008 μCi ^3H-cAMP. The reaction was incubated for 60 minutes at room temperature. […] After sedimentation of the beads during 30 minutes the radioactivity was measured in a Perkin Elmer Topcount scintillation counter and results were expressed as cpm. For blanc values the enzyme was omitted from the reaction and replaced by incubation buffer. Control values were obtained by addition of a final concentration of 1% DMSO instead of compound. The same assay principle is applied for the measurement of the affinity of the compound for other members of the PDE family with appropriate modifications in incubation buffer, substrate concentration, incubation time and stop solution.

[2] = system: apomorphine-induced stereotypy in rats; experiment: Apomorphine-induced stereotypy in rats (APO); format: in vivo; details: Rattus norvegicus, n.d.: found not active at threshold dose 2.5 mg/kg or 10 mg/kg (a)
Protocol: Apomorphine (1.0 mg/kg, i.v.)-induced stereotypy (compulsive sniffing, licking, chewing) was scored every 5 min over the first hour after injection of apomorphine, following a 1 hour interval pre-treatment with the test compound. The score system was: (3) pronounced, (2) moderate, (1) slight, and (0) absent.

[3] = po, * not soluble, tested orally as a suspension

`COCCCc1ccc(-c2c(C)nc3c(N4CCOCC4)ccnn23)cn1` [compound 2, 3-[6-(3-methoxypropyl)-3-pyridinyl]-2-methyl-8-(4-morpholinyl)-imidazo[1,2-b]pyridazine] showed an IC50 [1] of 46.8 nM and an ED50 ([2]; not further tested) of over 2.5 mg/kg.
`COCC(C)(C)c1ccc(-c2c(C)nc3c(N4CCOCC4)ccnn23)cn1` [compound 4, 3-[6-(2-methoxy-1,1-dimethylethyl)-3-pyridinyl]-2-methyl-8-(4-morpholinyl)-imidazo[1,2-b]pyridazine] was tested, and the IC50 [1] was 40.7 nM and the ED50 ([2]; not further tested) was over 2.5 mg/kg.
`CCOC(C)(C)c1ccc(-c2c(C)nc3c(N4CCOCC4)ccnn23)cn1` [compound 5, 3-[6-(1-ethoxy-1-methylethyl)-3-pyridinyl]-2-methyl-8-(4-morpholinyl)-imidazo[1,2-b]pyridazine] gave an IC50 [1] of 19.1 nM and an ED50 ([2]; not further tested) of over 2.5 mg/kg.
In the case of `COC(C)(C)c1ccc(-c2c(C)nc3c(N4CCOCC4)ccnn23)cn1` [compound 6, 3-[6-(1-methoxy-1-methylethyl)-3-pyridinyl]-2-methyl-8-(4-morpholinyl)-imidazo[1,2-b]pyridazine], the IC50 [1] is reported as 23.4 nM and the ED50 ([2]; not further tested) is reported as over 2.5 mg/kg.
`COCCOc1ncc(-c2c(C)nc3c(-c4ccncc4)ccnn23)cc1C` [compound 8, 3-[6-(2-methoxyethoxy)-5-methyl-3-pyridinyl]-2-methyl-8-(4-pyridinyl)-imidazo[1,2-b]pyridazine] gave an IC50 [1] of 162 nM and an ED50 ([2]; not further tested) of over 2.5 mg/kg.
Work on `COCCOc1ccc(-c2c(C)nc3c(-c4cccnc4)ccnn23)cn1` [compound 9, 3-[6-(2-methoxyethoxy)-3-pyridinyl]-2-methyl-8-(3-pyridinyl)-imidazo[1,2-b]pyridazine] yielded an IC50 [1] of 112 nM and an ED50 ([2]; not further tested) of over 2.5 mg/kg.
`COCCc1ccc(-c2cnc3c(N4CCOCC4)ccnn23)cn1` [compound 11, 3-[6-(2-methoxyethyl)-3-pyridinyl]-8-(4-morpholinyl)-imidazo[1,2-b]pyridazine] showed an IC50 [1] of 195 nM and an ED50 ([2]; not further tested) of over 2.5 mg/kg.
`COCCc1ccc(-c2c(OC)nc3c(N4CCOCC4)ccnn23)cn1` [compound 12, 2-methoxy-3-[6-(2-methoxyethyl)-3-pyridinyl]-8-(4-morpholinyl)-imidazo[1,2-b]pyridazine] gave an IC50 [1] of 224 nM and an ED50 ([2]; not further tested) of over 2.5 mg/kg.
`COCCc1ccc(-c2c(C)nc3c(N4CCOCC4)cc(C4CC4)nn23)cn1` [compound 13, 6-cyclopropyl-3-[6-(2-methoxyethyl)-3-pyridinyl]-2-methyl-8-(4-morpholinyl)-imidazo[1,2-b]pyridazine] gave an IC50 [1] of 195 nM and an ED50 ([2]; not further tested) of over 2.5 mg/kg.
For `COCCc1ccc(-c2c(C)nc3c(-c4ccncc4)cc(C4CC4)nn23)cn1` [compound 14, 6-cyclopropyl-3-[6-(2-methoxyethyl)-3-pyridinyl]-2-methyl-8-(4-pyridinyl)-imidazo[1,2-b]pyridazine], the IC50 [1] was 120 nM and the ED50 ([2]; not further tested) was over 2.5 mg/kg.
`COCCc1ccc(-c2c(C3CC3)nc3c(N4CCOCC4)cc(C)nn23)cn1` [compound 15, 2-cyclopropyl-3-[6-(2-methoxyethyl)-3-pyridinyl]-6-methyl-8-(4-morpholinyl)-imidazo[1,2-b]pyridazine] was tested, and the IC50 [1] was 302 nM and the ED50 [2, 3] was over 2.5 mg/kg.
Work on `CCOCc1ccc(-c2c(C)nc3c(N4CCOCC4)ccnn23)cn1` [compound 17, 3-[6-(ethoxymethyl)-3-pyridinyl]-2-methyl-8-(4-morpholinyl)-imidazo[1,2-b]pyridazine] yielded an IC50 [1] of 55 nM and an ED50 [2, 3] of over 2.5 mg/kg.
`COCCc1ccc(-c2c(C)nc3c(-c4ccncc4)ccnn23)cn1` [compound 20, 3-[6-(2-methoxyethyl)-3-pyridinyl]-2-methyl-8-(4-pyridinyl)-imidazo[1,2-b]pyridazine] was tested, and the IC50 [1] was 27.5 nM and the ED50 ([2]; not further tested) was over 2.5 mg/kg.
In the case of `COCCc1ccc(-c2c(C)nc3c(N4CCOCC4)cc(C)nn23)cn1` [compound 23, 3-[6-(2-methoxyethyl)-3-pyridinyl]-2,6-dimethyl-8-(4-morpholinyl)-imidazo[1,2-b]pyridazine], the IC50 [1] is reported as 112 nM and the ED50 ([2]; not further tested) is reported as over 2.5 mg/kg.
`COCCc1ccc(-c2c(C)nc3c(-c4ccncc4)cc(C)nn23)cn1` [compound 24, 3-[6-(2-methoxyethyl)-3-pyridinyl]-2,6-dimethyl-8-(4-pyridinyl)-imidazo[1,2-b]pyridazine] gave an IC50 [1] of 79.4 nM and an ED50 ([2]; not further tested) of over 2.5 mg/kg.
`CCOCCc1ccc(-c2c(C)nc3c(N4CCOCC4)ccnn23)cn1` [compound 25, 3-[6-(2-ethoxyethyl)-3-pyridinyl]-2-methyl-8-(4-morpholinyl)-imidazo[1,2-b]pyridazine] gave an IC50 [1] of 33.9 nM and an ED50 [2, 3] of over 2.5 mg/kg.
Work on `COCCc1cc(-c2c(C)nc3c(N4CCOCC4)ccnn23)ccn1` [compound 26, 3-[2-(2-methoxyethyl)-4-pyridinyl]-2-methyl-8-(4-morpholinyl)-imidazo[1,2-b]pyridazine] yielded an IC50 [1] of 30.9 nM and an ED50 ([2]; not further tested) of over 2.5 mg/kg.
Work on `Cc1nc2c(N3CCOCC3)ccnn2c1-c1ccc(C2CCOCC2)nc1` [compound 27, 2-methyl-8-(4-morpholinyl)-3-[6-(tetrahydro-2H-pyran-4-yl)-3-pyridinyl]-imidazo[1,2-b]pyridazine] yielded an IC50 [1] of 31.6 nM and an ED50 ([2]; not further tested) of over 2.5 mg/kg.
Compound `CO[C@@H]1CCN(c2ccc(-c3c(C)nc4c(N5CCOCC5)ccnn34)cn2)C1` [compound 34, 3-[6-[(3R)-3-methoxy-1-pyrrolidinyl]-3-pyridinyl]-2-methyl-8-(4-morpholinyl)-imidazo[1,2-b]pyridazine] has an IC50 [1] of 117 nM and an ED50 ([2]; not further tested) of over 2.5 mg/kg.
`COC(C)(C)Cn1cc(-c2c(C3CC3)nc3c(N4CCOCC4)ccnn23)cn1` [compound 38, 2-cyclopropyl-3-[1-(2-methoxy-2-methylpropyl)-1H-pyrazol-4-yl]-8-(4-morpholinyl)-imidazo[1,2-b]pyridazine] was tested, and the IC50 [1] was 28.8 nM and the ED50 ([2]; not further tested) was over 2.5 mg/kg.
`Cc1ccc(-c2c(C)nc3c(N4CCOCC4)ccnn23)cn1` [compound 39, 2-methyl-3-(6-methyl-3-pyridinyl)-8-(4-morpholinyl)-imidazo[1,2-b]pyridazine] gave an IC50 [1] of 70.8 nM and an ED50 ([2]; not further tested) of over 2.5 mg/kg.
For `COC(C)(C)Cc1ccc(-c2c(C)nc3c(-c4ccncc4)cc(C4CC4)nn23)cn1` [compound 40, 6-cyclopropyl-3-[6-(2-methoxy-2-methylpropyl)-3-pyridinyl]-2-methyl-8-(4-pyridinyl)-imidazo[1,2-b]pyridazine], the IC50 [1] was 117 nM and the ED50 ([2]; not further tested) was over 2.5 mg/kg.
Work on `COCCOc1ccc(-c2c(C)nc3c(N4CCOCC4)cc(C4CC4)nn23)cn1` [compound 41, 6-cyclopropyl-3-[6-(2-methoxyethoxy)-3-pyridinyl]-2-methyl-8-(4-morpholinyl)-imidazo[1,2-b]pyridazine] yielded an IC50 [1] of 407 nM and an ED50 ([2]; not further tested) of over 2.5 mg/kg.
`COCCOc1cncc(-c2c(C)nc3c(N4CCOCC4)cc(C4CC4)nn23)c1` [compound 42, 6-cyclopropyl-3-[5-(2-methoxyethoxy)-3-pyridinyl]-2-methyl-8-(4-morpholinyl)-imidazo[1,2-b]pyridazine] gave an IC50 [1] of 93.3 nM and an ED50 ([2]; not further tested) of over 2.5 mg/kg.
Work on `COC(C)(C)Cc1ccc(-c2c(C)nc3c(N4CCOCC4)cc(C4CC4)nn23)cn1` [compound 43, 6-cyclopropyl-3-[6-(2-methoxy-2-methylpropyl)-3-pyridinyl]-2-methyl-8-(4-morpholinyl)-imidazo[1,2-b]pyridazine] yielded an IC50 [1] of 191 nM and an ED50 ([2]; not further tested) of over 2.5 mg/kg.
For `COCCOc1ccc(-c2c(C3CC3)nc3c(-c4ccncc4)ccnn23)cn1` [compound 44, 2-cyclopropyl-3-[6-(2-methoxyethoxy)-3-pyridinyl]-8-(4-pyridinyl)-imidazo[1,2-b]pyridazine], the IC50 [1] was 45.7 nM and the ED50 ([2]; not further tested) was over 2.5 mg/kg.
